Reference: patent US20030036531A1, “Use of lysophospholipids to inhibit mammalian phospholipase D” (Wisconsin Alumni Research Foundation, priority 2001, published 2003)

Legend:
[1] = biological target: T1, partially purified PLD from rat brain membrane (Rattus norvegicus, UniProt P70496); assay: Measurement of PLD activity (partially purified rat brain PLD, 14C-PC substrate, TLC); type: biochemical; details: for PLD activity, % of the control: 10 μM compound, standard mixture with 4.8 μM PIP2, 100 nM Arf, 5 μM GTPγS; for Km for PLD in the presence of inhibitor: Km without inhibitor 33.3 μM PC; for Vmax in the presence of inhibitor: Vmax without inhibitor 166.7 pmol/h, Lineweaver-Burk; for IC50: FIG. 2, read-out: Half-maximal inhibition of PLD activity
T1 construct: The activity of partially purified PLD from rat brain membrane was assayed; tissue Dr. Sue Goo Rhee (National Institutes of Health, Bethesda, Md.); host or cells: rat brain membranes
T1 sequence (P70496 1-1074): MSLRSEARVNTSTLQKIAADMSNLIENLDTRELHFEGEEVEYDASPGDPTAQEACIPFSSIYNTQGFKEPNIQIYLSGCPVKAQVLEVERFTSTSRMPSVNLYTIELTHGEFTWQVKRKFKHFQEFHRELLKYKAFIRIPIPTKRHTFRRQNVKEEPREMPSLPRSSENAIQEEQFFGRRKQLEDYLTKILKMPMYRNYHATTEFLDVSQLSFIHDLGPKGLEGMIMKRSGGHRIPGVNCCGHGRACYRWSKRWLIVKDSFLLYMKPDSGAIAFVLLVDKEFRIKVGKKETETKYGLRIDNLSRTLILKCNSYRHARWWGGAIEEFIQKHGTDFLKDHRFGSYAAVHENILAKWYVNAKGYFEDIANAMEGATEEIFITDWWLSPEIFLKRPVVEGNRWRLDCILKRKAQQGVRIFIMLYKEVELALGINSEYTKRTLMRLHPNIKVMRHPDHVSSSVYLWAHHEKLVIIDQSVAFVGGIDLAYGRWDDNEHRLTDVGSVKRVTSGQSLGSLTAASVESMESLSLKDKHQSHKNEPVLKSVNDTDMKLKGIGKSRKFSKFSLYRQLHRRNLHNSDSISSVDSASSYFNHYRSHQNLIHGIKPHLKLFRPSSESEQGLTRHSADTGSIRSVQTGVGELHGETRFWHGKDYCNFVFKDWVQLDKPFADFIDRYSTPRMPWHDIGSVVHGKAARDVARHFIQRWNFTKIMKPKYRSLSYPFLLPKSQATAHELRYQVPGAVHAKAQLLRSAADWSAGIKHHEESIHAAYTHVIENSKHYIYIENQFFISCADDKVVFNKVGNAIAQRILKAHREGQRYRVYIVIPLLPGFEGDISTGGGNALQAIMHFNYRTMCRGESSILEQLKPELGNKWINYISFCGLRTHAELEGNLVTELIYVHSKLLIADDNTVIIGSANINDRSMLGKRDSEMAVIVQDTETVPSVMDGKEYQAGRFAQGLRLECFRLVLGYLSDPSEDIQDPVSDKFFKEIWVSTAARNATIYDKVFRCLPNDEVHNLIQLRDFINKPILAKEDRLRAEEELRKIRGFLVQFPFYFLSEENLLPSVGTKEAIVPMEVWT

[2] = tested on: human prostate cancer cell line PC-3; assay: PC-3 cell growth (cell viability after trypan blue staining); type: cell-based
Procedure: The influence of lysophospholipids on the inhibition of cancer cell growth was investigated. For this purpose, human prostate cancer cell line PC-3 was used. PC-3 cells were cultured using standard RPMI 1640 medium supplemented with 5% fetal bovine serum (FBS). The composition of RPMI 1640 included inorganic salts, glucose, amino acids and vitamins (see Rajesh, D., et al., Molecular Pharmacology 56:515-525 (1999) for details). PC-3 cells were cultured in the presence of various presence of various phospholipids. At appropriate times after treatment the cells were treated by trypsin EDTA treatment, washed twice in an ice cold buffer and analyzed for cell viability after staining with trypan blue (Sawicki, W., et al., Stain Technology 42:143 (1967)).

[3] = tested on: PLD activity in PC-3 cells; details: cited from earlier work
PLD from plant tissues = details: cited from earlier work
rat brain PLD = biological target: T2, rat brain PLD (Rattus norvegicus, UniProt P70496); assay: Binding of lysophospholipids to PLD (vesicle precipitation assay followed by immunoblot); details: 1 mM vesicles, 1,500 fold excess BSA
T2 construct: 200 ng of rat brain PLD; tissue Dr. Sue Goo Rhee (National Institutes of Health, Bethesda, Md.); host or cells: rat brain membranes
T2 sequence (P70496 1-1074): T1 sequence (P70496 1-1074)
Procedure: The binding ability of lysophospholipids to PLD was estimated by precipitation assay followed by immunoblot. The final assay volume was 0.3 ml containing 50 mM Hepes (pH 7.5), 3 mM EGTA, 80 mM KCl, 2.5 MM MgCl2, 2 mM CaCl2, 1% ethanol, 5 μM GTPγS, 33 nM myristoylated Arf, 300 μg of BSA, 200 ng of rat brain PLD and 1 mM lysophospholipid or phospholipid vesicles. After incubation at 37° C. for 10 minutes, the mixture was cooled in ice-water for 30 minutes and centrifuged at 17,000×g for 30 minutes at 4° C. The precipitant of lysophospholipid vesicles containing bound PLD in the excess of BSA (1,500 fold than rat PLD) was resuspended in 20 μL PBS (pH 7.5). The bound PLD was separated by 8% SDS-PAGE without reducing agent (2-mercaptoethanol) in sample loading buffer and transferred onto immunoblot membrane. The membrane was blotted with rabbit-PLD antibodies that detect both PLD 1 and PLD 2 isozymes. The PLD-antibody complex was visualized by staining alkaline phosphatase conjugated to a second antibody (Bio-Rad, Hercules, Calif.).

O[C@H]1[C@H](O)[C@@H](O)[C@H](O)[C@@H](O)[C@H]1O [inositol, reference compound]
inhibition of PLD activity by headgroups ([1]; 10 μM): None of the headgroups such as choline, glycerol, inositol, or serine significantly inhibited PLD activity

CCCCCCCC/C=C\CCCCCCCC(=O)O [oleate, reference compound]
inhibition at 20 µM ([1]; 20 μM): 10% | inhibition at 40 µM ([1]; 40 μM): 20%

C=C(C)[C@@H]1CC=C(CO)CC1 [perillyl alcohol, reference compound]
inhibition of PC-3 cell growth compared to LPI (FIG. 10) ([2]; 1 mM): not as strong inhibitor of PC-3 cell growth as compared to LPI

N[C@@H](CO)C(=O)O [serine, reference compound]
inhibition of PLD activity by headgroups ([1]; 10 μM): None of the headgroups such as choline, glycerol, inositol, or serine significantly inhibited PLD activity

Triton X-100 [reference compound]
stimulatory effect on PLD activity ([1]; 10 μM): 6-9%

eLPE [reference compound]
effect on rat brain PLD activity ([1]; 10 μM (FIG. 1)): not inhibited but rather slightly stimulated

lysophosphatidic acid [reference compound]
stimulation of rat brain PLD ([1]; 10 and 20 μM, assay contains Arf and PIP2): not stimulated | effect on PLD activity in PC-3 cells [3]: stimulate PLD activity

lysophosphatidylcholine [LPC, reference compound]
PLD activity, % of the control [1]: 61.0% | retardation of PC-3 cell growth (FIG. 8) [2]: able to retard the growth of PC-3 cells | inhibition of activity of PLD from plant tissues (PLD from plant tissues): not significantly inhibited

lysophosphatidylglycerol [LPG]
PLD activity, % of the control [1]: 24.9% | retardation of PC-3 cell growth (FIG. 8) [2]: able to retard the growth of PC-3 cells | inhibition of activity of PLD from plant tissues (PLD from plant tissues): not significantly inhibited

lysophosphatidylinositol [LPI]
inhibition of PLD activity ([1]; 160 nM): 19% | inhibition of PLD activity ([1]; 640 nM): 27% | PLD activity, % of the control, in the absence of Arf ([1]; 4 μM inhibitor, no Arf (no Arf alone: 72%)): 33% | Km for PLD in the presence of inhibitor ([1]; 4 μM inhibitor): did not change | Vmax in the presence of inhibitor ([1]; 4 μM inhibitor): 76.9 pmol/h | PLD activity, % of the control [1]: 23.3% | change of PLD activity by addition of myristoylated Arf in presence of inhibitor ([1]; 15 μM inhibitor): not significantly changed | IC50 [1]: 3 µM | PLD inhibition when PIP2 concentration tripled ([1]; LPI 4 μM, LPS 12 μM, PIP2 4.8 vs 14.4 μM): not significantly changed | inhibition of PC-3 cell growth, lyso form vs phospholipid and inositol (FIG. 7) [2]: able to inhibit the PC-3 cell growth | retardation of PC-3 cell growth (FIG. 8) [2]: able to retard the growth of PC-3 cells | inhibition of PC-3 cell growth, concentration dependence (FIG. 9) ([2]; 100 μM): very inhibitory | co-precipitation of PLD proteins with lipid vesicles (rat brain PLD): co-precipitated

lysophosphatidylserine [LPS]
Km for PLD in the presence of inhibitor ([1]; 4 μM inhibitor): did not change | Vmax in the presence of inhibitor ([1]; 4 μM inhibitor): 121.5 pmol/h | PLD activity, % of the control [1]: 30.3% | IC50 [1]: 6 µM | inhibition of activity of PLD from plant tissues (PLD from plant tissues): not significantly inhibited
